Measurements as given in patent US20120020958A1, “FIBCD1 FOR THE PREVENTION AND TREATMENT OF DISEASES” (Dansk Universitet, priority 2008, published 2012).
Values belong to the molecule of their own block, whether it stands above or below them.

Key:
mice = conditions: cited from earlier work
[1] = molecular target: T1, FIBCD1 (the FReD of FIBCD1) (Homo sapiens, UniProt Q8N539); test: Pull-down assay of FIBCD1 (FReD) with insoluble polysaccharides; type: binding; conditions: 20 μg FIBCD1 FReD, 2 mg insoluble substance
T1 construct: 20 μg of the FIBCD1 (the FReD of FIBCD1)
T1 sequence (Q8N539 235-458 limits assumed): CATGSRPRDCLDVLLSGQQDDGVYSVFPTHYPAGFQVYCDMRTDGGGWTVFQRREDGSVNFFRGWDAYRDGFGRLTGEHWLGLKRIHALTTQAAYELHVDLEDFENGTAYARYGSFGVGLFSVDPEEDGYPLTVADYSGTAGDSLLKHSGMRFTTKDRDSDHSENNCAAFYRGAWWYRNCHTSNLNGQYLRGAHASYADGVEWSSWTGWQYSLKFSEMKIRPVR
Protocol: (B) Microtiterplates were coated with LTA, mannan, peptidoglycan or NAc-BSA and increasing concentrations of FIBCD1 was added. (C) Pull-down assays where 20 μg of the FIBCD1 (the FReD of FIBCD1) or as a positive control 20 μg of wheat germ agglutinin (WGA) was added to 2 mg insoluble chitin, cellulose, zymozane or beta-glucan. […] BSA was used as control. Pellet fractions were analyzed by SDS-PAGE and Coomassie blue staining.

allergic mouse model = conditions: oral administration; cited from earlier work
[2] = tested on: spleen cells isolated from the ragweed-immunized mice; conditions: ragweed/chitin stimulation, 3 days; cited from earlier work
acetylated BSA = molecular target: T2, acetylated BSA (Bos taurus, UniProt P02769); test: Binding of mutated forms of the FReD of FIBCD1 to acetylated BSA (ELISA); conditions: site directed mutagenesis of FIBCD1 FReD
T2 construct: purchased Sigma
T2 sequence (P02769 25-607): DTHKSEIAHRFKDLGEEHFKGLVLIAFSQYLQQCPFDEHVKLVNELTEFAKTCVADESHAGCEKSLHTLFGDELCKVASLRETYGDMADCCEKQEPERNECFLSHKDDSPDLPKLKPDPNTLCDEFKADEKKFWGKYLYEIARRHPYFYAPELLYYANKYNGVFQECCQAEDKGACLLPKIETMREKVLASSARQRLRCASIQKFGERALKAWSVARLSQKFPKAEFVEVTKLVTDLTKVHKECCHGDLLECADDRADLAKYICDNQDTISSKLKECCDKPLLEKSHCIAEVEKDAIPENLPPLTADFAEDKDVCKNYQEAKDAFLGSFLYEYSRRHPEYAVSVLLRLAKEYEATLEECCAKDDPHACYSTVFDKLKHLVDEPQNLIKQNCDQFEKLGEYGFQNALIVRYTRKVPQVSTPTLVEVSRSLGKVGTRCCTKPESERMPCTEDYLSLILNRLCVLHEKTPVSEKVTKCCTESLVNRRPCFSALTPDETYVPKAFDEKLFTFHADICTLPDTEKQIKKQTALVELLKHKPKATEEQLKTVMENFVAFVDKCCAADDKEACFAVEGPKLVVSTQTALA
Protocol: Microtiter plates were coated with acetylated BSA or BSA and blocked with TBS/Tw before being incubated with FIBCD1 samples diluted in TBS/Tw (5 mM CaCl2). The FIBCD1 samples were added from 1 μg/ml in a twofold dilution series. The signal from binding of protein to BSA was subtracted from the signal from binding to acetylated BSA. The resulting normalized signals were then expressed as a percentage of the signal from FIBCD1FReD at 1 μg/ml, which was set at 100%. The experiment was repeated three times.
Generation of HEK293 and CHO cells expressing recombinant forms of FIBCD1 In order to generate cells expressing recombinant forms of FIBCD1, the Flp-In™ system (Invitrogen) was utilized. In this system the cDNA is integrated into a specific genomic site. Flp-In™ T-REx™ HEK293 cells or CHO Flp-In™ T-REx™ (Invitrogen) was used as host cells. HEK293 cells were cultured in Dulbecco's modified Eagle medium (DMEM; Invitrogen) and CHO cells in Hams F12 medium (Invitrogen) both containing penicillin (100 units/ml), streptomycin (100 μg/ml), 2 mM L-glutamine and 10% fetal bovine serum (Invitrogen). At approximately 50% confluency, cells were co-transfected (ratio 1:9) with the pSecTag/FRT/V5-His TOPO® TA or pcDNA/FRT/V5-His TOPO® TA containing the FIBCD1 construct and the pOG44 vector encoding Flp recombinase, using the jetPEI™ transfection kit (Polyplus-transfection SAS, Illkirch cedex, France). The recombinase mediates insertion of the expression vectors into the genomic integration site. Integration of the vectors confers hygromycin resistance. Thus, 48 hours after transfection the HEK293 and CHO cells were selected for stable integration of the FIBCD1 constructs with 150 μg/ml and 800 μg/ml hygromycin B (Invitrogen), respectively. Hygromycin resistant clones were obtained after two weeks of culture. At confluence cells were transferred to DMEM or Hams F12 medium without serum. Supernatants were harvested after 72 hours of expression and analyzed by SDS-PAGE and Western blotting. […]

Molecule: AMCase: acidic mammalian chitinase, an endo-β-1,3... see b8: endo-β-1,4-N-acetylglucosaminidase
chitin-induced cell infiltration (mice; pre-treatment with AMCase): inhibited

binding of FIBCD1 in pull-down [1]: detected
Molecule: chitin
accumulation of IL-4 and IL-13 expressing cells including Th2 cells, eosinophils and basophils (mice; instilled in the lung (or given intraperitoneally)): induced the accumulation | lung eosinophilia (allergic mouse model): down-regulates | serum IgE levels (allergic mouse model): down-regulates | IFN-γ production [2]: increase | IL-4 levels [2]: significant decreases | IL-5 levels [2]: significant decreases | IL-10 levels [2]: significant decreases

B1: H415G: single mutation form of the FReD of FIBCD1 (protein)
chain: ATGSRPRDCLDVLLSGQQDDGVYSVFPTHYPAGFQVYCDMRTDGGGWTVFQRREDGSVNFFRGWDAYRDGFGRLTGEHWLGLKRIHALTTQAAYELHVDLEDFENGTAYARYGSFGVGLFSVDPEEDGYPLTVADYSGTAGDSLLKHSGMRFTTKDRDSDHSENNCAAFYRGAWWYRNCGTSNLNGQYLRGAHASYADGVEWSSWTGWQYSLKFSEMKIRPVREDR
binding of mutated FIBCD1 to NAc-BSA (acetylated BSA): completely arrogate

B2: W443S: single mutation form of the FReD of FIBCD1 (protein)
chain: ATGSRPRDCLDVLLSGQQDDGVYSVFPTHYPAGFQVYCDMRTDGGGWTVFQRREDGSVNFFRGWDAYRDGFGRLTGEHWLGLKRIHALTTQAAYELHVDLEDFENGTAYARYGSFGVGLFSVDPEEDGYPLTVADYSGTAGDSLLKHSGMRFTTKDRDSDHSENNCAAFYRGAWWYRNCHTSNLNGQYLRGAHASYADGVEWSSWTGSQYSLKFSEMKIRPVREDR
binding of mutated FIBCD1 to NAc-BSA (acetylated BSA): partially arrogated

B3: A432V: single mutation form of the FReD of FIBCD1 (protein)
chain: ATGSRPRDCLDVLLSGQQDDGVYSVFPTHYPAGFQVYCDMRTDGGGWTVFQRREDGSVNFFRGWDAYRDGFGRLTGEHWLGLKRIHALTTQAAYELHVDLEDFENGTAYARYGSFGVGLFSVDPEEDGYPLTVADYSGTAGDSLLKHSGMRFTTKDRDSDHSENNCAAFYRGAWWYRNCHTSNLNGQYLRGAHASYVDGVEWSSWTGWQYSLKFSEMKIRPVREDR
binding of mutated FIBCD1 to NAc-BSA (acetylated BSA): completely arrogate
